From patent publication US12263248B2, “Compounds and compositions for intracellular delivery of therapeutic agents” (ModernaTX, Inc., priority 2018, dated 2025)

Key:
[1] = Apparent (surface) pKa of the LNP formulation (TNS assay); format: physicochemical; conditions: for pKa: Table 1A
How it was run: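 Fluorescence of TNS probe added to LNP samples (mRNA 0.04 mg/mL) was read across 21 buffers of pH about 3-12, triplicate per pH. The inflection point of the sigmoidal fluorescence-vs-pH curve, […], gives apparent pKa; method validated in 1× PBS and Tris/sucrose buffer.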

[2] = tested on: luciferase (Luc) mRNA; test: Luc expression in liver, lung, spleen and femur 6 hours after intravenous administration; format: in vivo; conditions: mice, intravenous, 0.5 mpk
How it was run: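 LNP-formulated mRNA given IV to mice (n=3) at 0.5 mpk; at 6 h, bioluminescence imaged ex vivo 15 min after IP D-luciferin (15 mg/mL, 200 μL), organs imaged within 25 min. Values are total flux by region of interest.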

[3] = Particle size and polydispersity index of nanoparticle compositions (Zetasizer Nano ZS); format: physicochemical
How it was run: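 Zetasizer Nano ZS; samples in 1×PBS; read-out: particle size plus polydispersity index.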

[4] = Lipid clearance: lipid level in mouse liver tissue (LC-MS/MS); format: in vivo; conditions: for % Dose Remaining in Liver 6 h: Table 3D, intravenous
[5] = tested on: hEPO mRNA; test: hEPO expression after subcutaneous administration to mice; format: in vivo, female CD-1 mice; conditions: for hEPO expression Lipid/Compound 18 ratio, 6 hr. / hEPO expression Lipid/Compound 18 ratio, AUC: 0.5 mpk
Description: The effect of the lipids of the disclosure on protein expression upon subcutaneous administration was studied. Formulations containing lipids of the disclosure and an mRNA expressing luciferase or hEPO were administered subcutaneously to female CD-1 mice at 0.5 mpk. Expression levels were obtained via whole body luminescent imaging (BLI) at 3, 6 and 24 hours after injection and expression levels in liver, spleen and at the injection site were evaluated ex vivo after 24 hours. […] See also Tables 35 and 36, and FIGS. 19 and 27.
Table 36 summarizes the hEPO expression levels using various nanoparticle compositions of the disclosure as compared to the hEPO expression level using a formulation containing MC3 or Compound 18, following subcutaneous administration, as described above.

[6] = Encapsulation efficiency of RNA (QUANT-IT RIBOGREEN RNA assay); format: physicochemical; conditions: for % EE: Table 1D, for subcutaneous administration, # formulated with hEPO mRNA
How it was run: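 RiboGreen fluorescence (ex ~480, em ~520 nm) compared between intact samples and Triton X-100-lysed samples after 15 min at 37 °C in TE buffer, pH 7.5. Percent free RNA is the blank-corrected intact/disrupted ratio.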

[7] = tested on: luciferase (Luc) mRNA; test: Luc expression, whole body bioluminescence after intravenous administration to mice; format: in vivo
How it was run: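 Bioluminescence, read as region-of-interest total flux at 3, 6 and 24 h, followed a single 0.5 mg/kg intravenous dose of Luc mRNA-loaded nanoparticles in mice (n=6). Luciferin substrate (200 μL, 15 mg/mL in PBS) was injected intraperitoneally into CD-1 mice 15 minutes ahead of each imaging point.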

[8] = tested on: hEPO mRNA; test: hEPO expression after intravenous administration to rats; format: in vivo, rat; conditions: Table 19B
Description: The expression of hEPO and cytokine induction in rats intravenously administered a nanoparticle composition at a dose of 2.0 mpk was measured at 6 h.
(§1) The expression of hEPO in rats intravenously administered a nanoparticle composition at a dose of 0.2 mpk or 2.0 mpk was measured at 6 hours. Table 16 summarize the ratio of hEPO expression levels using various nanoparticle compositions as compared to the hEPO expression level using MC3 formulation and the lipid levels in the liver measured 48 hours after administration, as described above. Tables 17 and 18 summarize the lipid levels in the liver and spleen measured 48 hours after administration of Compounds 28, 33, 53, and 54. Liver and spleen levels represent the average values calculated for 3 rats in each group. As is shown in Tables 17 and 18, less than 10% of Compounds 28, 33, 53, and 54 remained in the liver after 48 hours, while greater than 60% of MC3 remained.
The expression of hEPO induced by intravenous administration to rats of nanoparticle compositions at various doses was measured at 2, 4, 6, 8, 24, and 48 hour time points. FIGS. 3-6 respectively summarize the hEPO expression measured upon intravenous administration of formulations including Compounds 26, 18, 25, and MC3 to rat at various doses. The lipid levels of Compound 26 in the liver after 48 hours were about 19%.
(§2) 005781 The expression of hEPO and lipid levels in the liver and spleen in rats intravenously administered a nanoparticle composition at a dose of 0.2 mpk was measured at various time points. Compounds 18 and 25 were selected for comparison with MC3. Lipids were formulated according to the standard MC3 formulation described above. Rats were administered intravenously a single 0.2 mpk dose and expression monitored at 0.25, 0.5, 1, 2, 4, 8, 24, and 48 hours after administration.
Blood collection and analysis for hEPO. Blood was collected from mice or rats via the tail vein and hEPO concentrations were determined using a hEPO ELISA assay.

[9] = Residual lipid levels in rat liver and spleen (UPLC-MS); format: in vivo; conditions: Table 19B, liver, 24 h
Description: At 48 h liver tissue was harvested for lipid quantification. To pre-weighed tissues, Milli-Q water was added (900 μL water per 100 mg tissue). Tissues were homogenized using an Omni probe homogenizer until uniform. 50 μL of samples and matrix calibration standards were aliquoted into a 96-well plate. 50 μL of blank matrix for matrix blanks and control blanks were aliquoted. 400 μL is spiking solution were manually added to all samples except matrix blanks. 400 μL of 50:50 ACN:IPA were manually added to matrix blanks. The plate was covered and the samples vortexed and centrifuged for 5 minutes at >3000 rpm. 200 μL of the samples were transferred into a clean 96-well plate for analysis. Samples were analyzed on a Waters Acquity UPLC using a Higgins Analytical Clipeus C8 column ([…], 30×2.1 mm) and a gradient of either 70-95% or 60-95% (Mobile Phase A: 5 mM ammonium formate in 50:50:1 H2O:MeOH:formic acid; Mobile Phase B: 5 mM ammonium formate in 100:1 MeOH:formic acid) over 1.3 min at 1.2 mL/min (column temperature 55° C.). Detection was based on electrospray ionization (ESI) in positive mode using a Sciex API5500 Mass Spectrometer.
as §1, §2

[10] = Table 1A, lipid:DSPC:cholesterol:PEG-DMG 50:10:38.5:1.5 mol %
[11] = Table 1D, for subcutaneous administration, # formulated with hEPO mRNA
[12] = Table 1B, formulated with hEPO mRNA

pKa [1] | PDI ([3]; Table 1A) | Size (nm) [3, 10] | PDI [3, 11] | Size (nm) [3, 11] | EE (%) ([6]; Table 1A) | % EE [6] | Compound | hEPO expression Lipid/Compound 18 ratio, 6 hr. [5] | hEPO expression Lipid/Compound 18 ratio, AUC [5] | also measured
6.593 | 0.140 | 105.7 nm | 0.13 | 77.6 nm | 87.86% | 95.4% | CCCCCCCCCC(=O)OCCCCCCCN(CCO)CCCCCCCOC(=O)C(CCCCCCCC)CCCCCCCC [Compound 151, 7-((7-(Decanoyloxy)heptyl)(2-hydroxyethyl)amino)heptyl 2-octyldecanoate] | 0.73 | 0.71 | Apparent pKa ([1]; Table 3G): 6.59; Total Flux Liver ([2]; liver): 4.72E+09; Total Flux Lung ([2]; lung): 9.20E+06; Total Flux Spleen ([2]; spleen): 9.27E+07; % Dose Remaining in Liver 6 h ([4]; second column (head also says 6 h)): <1%; % Dose Remaining in Liver 6 h [4]: <1%; Lipid/MC3 AUC ([7]; Table 3D, intravenous): 3.7; AUC (p/s * h) ([7]; Table 3D, intravenous, Luc): 7.010E+011 p/s * h; Novel lipid/MC3 ratio, 6 hr. timepoint, i.v. ([7]; luciferase, intravenous, relative to MC3, Table 3G): 3.29; Total Flux 3 hours ([7]; mice, i.v., 0.5 mg/kg, Luc mRNA, 3 hours): 5.63E+10; Total Flux 6 hours ([7]; mice, i.v., 0.5 mg/kg, Luc mRNA, 6 hours): 5.68E+10; Total Flux 24 hours ([7]; mice, i.v., 0.5 mg/kg, Luc mRNA, 24 hours): 2.23E+09
6.50 | 0.14 | 84.6 nm | 0.14 | 74.3 nm | 92.9% | 93.5% | CCCCCCCCCC(=O)OC(C)CCCCCCN(CCO)CCCCCCCOC(=O)C(CCCCCCCC)CCCCCCCC (stereo not drawn) [Compound 165, 7-((7-(Decanoyloxy)octyl)(2-hydroxyethyl)amino)heptyl 2-octyldecanoate] | 0.63 | 0.64 | % Remaining dose at 6 h ([4]; Table 3E, mouse liver, 6 h): 29.1%; % Remaining dose at 24 h ([4]; Table 3E, mouse liver, 24 h): 12.7%; 6 h BLI Lipid/MC3 ([7]; Table 3E, intravenous): 2.12
 | 0.11 | 66.9 nm | 0.13 | 87.0 nm | 97.81% | 97.5% | CCCCCCCCCOC(=O)CCCCCCCN(CCCCCCCC(=O)OC(CCCCCCCC)CCCCCCCC)CCCN/C(=N/S(C)(=O)=O)N(C)C [Compound 233, Heptadecan-9-yl (Z)-8-((3-(3,3-dimethyl-2-(methylsulfonyl)guanidino)propyl)(8-(nonyloxy)-8-oxooctyl)amino)octanoate] |  |  | AUC (hEPO) [8]: 129000 pg·h/mL; Lipid/MC3 ([hEPO] ratio) ([8]; relative to MC3): 0.00664; Lipid/MC3 AUC ([8]; relative to MC3): 0.01; [hEPO] ([8]; species, dose and time not given): 9800 pg/mL; PDI [3, 12]: 0.21; Size (nm) [3, 12]: 93.7 nm; % dose remaining, liver, 24 h [9]: 0.07%; Novel lipid/MC3 expression ratio, 6 hr. time point, s.c. hEPO 0.5 mpk ([5]; relative to MC3): 0.03; EE (%) [6, 12]: 97.6%
